# Data published in US12329967B2, “State-dependent peripheral neuromodulation to treat bladder dysfunction” (Duke University, priority 2015, dated 2025).
# Test system: bladder
# Assay: in vivo cystometry (CMG) in urethane anesthetized rats, PGE2 model of bladder dysfunction
# Parameters: species or system female Wistar rats
# Details: intravesical infusion of PGE2 (100 μM), no stimulation, vs control rats (FIG. 5A)
# Protocol: In the following examples, an accepted animal model of bladder dysfunction was used: the PGE2 (prostoglandin E2) model, in which installation of PGE2 into rats induces a hyperactive bladder response. In addition, a cat model of bladder dysfunction was used. […] Acute experiments were conducted in urethane (1.2 g/kg, SC) anesthetized female Wistar rats using in vivo cystometry (CMG). A PE-90 catheter was placed to measure bladder pressure and for intravesical infusion of saline and PGE2 (100 μM). Bipolar electrodes were placed on the external urethral sphincter (EUS) to measure electromyographic (EMG) activity and a bipolar nerve cuff electrode was placed on the sensory branch of the pudendal nerve for stimulation. In a subset of trials after PGE2 infusion, electrical stimulation of the sensory branch of the pudendal nerve was delivered at different amplitudes (0.5-10× EUS reflex threshold, T) and frequencies (1-50 Hz). T may be determined as follows: a low frequency electrical signal, typically 1 Hz, is applied and the intensity of stimulation is increased (either by increasing the voltage or the current of the signal, preferably the current) until the pudendal nerve stimulation pulse produces a reflex EMG response in the EUS.
structure (smiles),measurement,value
"CCCCC[C@H](O)/C=C/[C@H]1[C@H](O)CC(=O)[C@@H]1C/C=C\CCCC(=O)O [PGE2, prostoglandin E2]",changes in bladder capacity,reduces bladder capacity
